According to patent US7875607B2, “7,8-bicycloakyl-chroman derivatives” (Ampere Life Sciences, Inc., priority 2004, dated 2011):

What was measured:
[1] = test system: LTB4 production in heparinized whole blood; test: Inhibition of LTB4 production in blood; type: cell-based, rat or mouse; settings: 20 μM A23187, read-out: EC50, protection against LTB4
Procedure: The blood was collected in heparinized tubes or syringes to prevent clotting. Heparin was at 20 USP U/ml. About 3-5 ml of blood was collected per rat and about 0.5-0.75 ml per mouse. This assay required 200 μl/data point, therefore a 96 well plate requires 20 ml.
The Calcium ionophore A23187 was prepared as a 10 mM stock solution in DMSO and the test agent is prepared in DMSO so that <1 μl DMSO will be added to the well
200 μl blood per well were added in a round bottom 96 well clear plastic 96 well plate followed by the test agent. After 10 minutes incubation at 37° C., 5 μl of Calcium ionophore A23187 for a final concentration of 20 μM were added and mixed, and further incubated for 30 min. After 1000×g centrifugation to pellet blood cells, 20 μl plasma was carefully removed.
20 μl plasma were added to 80 μl methanol to precipitate protein and mixed. This was further incubated 10 min. at room temperature and centrifuged at 1000×g to pellet protein.
Following manufacturer's instructions, the commercially available EIA kit was used to subsequently measure the LTB4 production in the samples. The LTB4 levels produced in the vehicle control sample were then compared to those in which the test compound had been added. From this a percent inhibition of LTB4 production by each concentration of test compound was calculated and the IC50 for inhibition of LTB4 production for each test compound was determined.

[2] = test system: dopaminergic neuronal cell line; test: High glutamate-induced oxidative stress assay (HGOS); type: cell-based; settings: Mus musculus; 30 mM glutamate, 16 hrs; read-out: EC50, protection against HGOS cell injury and cell death
Source text: Protection against redox stress can be further evaluated in cell culture using high glutamate induced oxidative stress (HGOS) in mouse dopaminergic cell lines. The cytotoxic effect of glutamate is not due to excitotoxicity, as this cell line is devoid of inotropic glutamate receptors. Rather, the glutamate-induced toxicity of dopaminergic cells is associated with an inhibition of cystine transport which subsequently leads to depletion of intracellular glutathione (GSH) levels (Murphy T. H., et al. Neuron 2, 1547-1558, 1989), activation of neuronal 12-lipoxygenase (Li, Y. et al., Neuron 19, 453-463, 1997), increased ROS production (Tan S. et al., J. Cell Biol. 141, 1423-1432, 1998) and elevated intracellular Ca^2+ (Li, Y. et al., see supra). Some molecules were measured for their ability to protect cells against glutamate-induced stress and the assay is detailed in Examples.
This procedure was used to induce high glutamate-induced oxidative stress (HGOS) in a dopaminergic neuronal cell line. Using this assay the potency and efficacy of test articles against HGOS neuronal cell injury and cell death was established in a high throughput manner.
The cells were seeded into 96-well plates at a density of 2000 per well and left to grow for 72 hours in a 33° C. incubator with 5% CO2 in air atmosphere. The passage number of the cells for each assay experiment were no later than p11 in order to minimize experimental variation.
All compounds were dissolved in DMEM-No Glu containing 1 mM glucose, 30 mM glutamate and 1×Pen/Strep. DMEM-No Glu with 1 mM glucose and 1×P/S was used as the negative control, DMEM-No Glucose with 1 mM glucose, […] was used as a positive control and 100 μM Glutathione was added to the positive control as a standard. All of the procedures for this involving the making and dilution of compounds were performed using aseptic conditions and with minimal light.
The plates were removed from the incubator and examined under the microscope for morphological appearance and density. Using an aseptic technique and an 8-channel aspirator the media was carefully removed from the cells and replaced with 200 μl of 1×HBSS. This was done as quickly as possible to prevent the cells drying out. The plates were then placed in the humidified 37° C. incubators of the Biomek 2000 Side Loader. Four plates were washed at a time so as to minimize the time that the cells were sitting in 1×HBSS prior to addition of the compound test solution.
The Beckman Biomek workstations were used to load the compounds and controls from the mother plates onto the cell plates that were prewashed with HBSS under sterile conditions. The plates were incubated in the upper HTS incubator at 37° C. in 5% CO2 for exactly 16 hrs. The following day, using the Beckman Biomek workstations, the plates were removed from the incubator. Using Cell Tracker Addition, the compounds were removed from the plates, washed once with […] of pre-warmed 1×HBSS and then 100 μL of 5 μM Cell Tracker Green was added to each well. The plates were incubated at 37° C. for 30 min to allow the dye to enter the cell and be cleaved by the esterases. After washing the cells twice with prewarmed 1×HBSS, the plates were read with the 485 excitation; 538 emission filter pair on a Fluoroskan.

[3] = target: T1, human recombinant 5-lipoxygenase (Homo sapiens, UniProt P09917); test: 5-Lipoxygenase enzyme assay; type: biochemical; settings: 70 μM arachidonic acid, pH 7.4
T1 construct: purchased Cayman 60402
T1 sequence (P09917 1-674): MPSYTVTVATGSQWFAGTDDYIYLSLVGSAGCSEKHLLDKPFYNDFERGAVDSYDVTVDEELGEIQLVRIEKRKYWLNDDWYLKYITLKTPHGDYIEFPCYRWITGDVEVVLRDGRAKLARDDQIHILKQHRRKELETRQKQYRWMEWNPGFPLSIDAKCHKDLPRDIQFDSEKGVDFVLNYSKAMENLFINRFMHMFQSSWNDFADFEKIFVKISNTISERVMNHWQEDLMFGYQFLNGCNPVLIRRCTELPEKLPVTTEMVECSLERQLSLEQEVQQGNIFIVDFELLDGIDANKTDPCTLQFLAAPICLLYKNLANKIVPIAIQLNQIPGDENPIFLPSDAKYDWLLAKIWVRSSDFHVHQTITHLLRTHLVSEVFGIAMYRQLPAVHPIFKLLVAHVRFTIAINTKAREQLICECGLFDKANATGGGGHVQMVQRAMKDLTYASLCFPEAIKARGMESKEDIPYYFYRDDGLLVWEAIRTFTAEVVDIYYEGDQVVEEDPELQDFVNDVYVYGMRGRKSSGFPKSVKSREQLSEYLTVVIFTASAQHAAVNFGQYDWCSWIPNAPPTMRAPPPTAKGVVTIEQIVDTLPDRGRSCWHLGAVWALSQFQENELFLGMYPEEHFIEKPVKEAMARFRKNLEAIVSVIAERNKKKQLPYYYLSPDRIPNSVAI
Procedure: This procedure was used for measuring the enzymatic activity of human recombinant 5-lipoxygenase using a […] method based on the ferric oxidation of xylenol orange.
Human recombinant 5-lipoxygenase (Cayman Cat # 60402) was used in this assay. The test compound and/or vehicle was added to 0.5U 5-lipoxygenase in 50 mM Tris-HCl buffer, pH 7.4. The reaction was initiated by addition of 70 μM arachidonic acid in Tris-HCl buffer, pH 7.4, and terminated after a 10 minute incubation at room temperature by addition of FOX reagent (25 mM sulphuric acid, 100 μM xylenol orange, 100 μM iron (II) sulphate, methanol:water 9:1). The yellow color of acidified xylenol orange was converted to a blue color by the lipid hydroperoxide-mediated oxidation of Fe^2+ ions and the interaction of the resulting Fe^3+ ions with the dye. The complex was allowed to form during a 1 hour incubation at room temperature with shaking. Absorbance of the Fe^3+ complex was then measured at […] using a spectrophotometer.
Negative controls contained enzyme during the incubation step but substrate was not added until after the FOX reagent.
Compounds were screened at 5 concentrations in triplicate starting at 10 μM

[4] = test system: LTB4 release from MPRO cell line; test: LTB4-cell assay; type: cell-based; settings: Mus musculus; differentiated MPRO cells, 1 μM A23187, 1 hour; read-out: EC50, inhibition of LTB4
Procedure: This procedure was used for measuring the release of the leukotriene LTB4 from a neutrophil cell line using a competitive ELISA technique.
A mouse promyelocytic cell line (MPRO) was used in this assay. These cells are committed immature neutrophils that can be differentiated into mature neutrophils by treatment with 10 μM all-trans retinoic acid for 72 hours
Following 72 hours of differentiation, cells were stimulated with 1 μM of a calcium ionophore (A23187) in the presence or absence of test compound or vehicle for 1 hour at 37° C. After this time, supernatant was removed from the cells and the LTB4 levels were determined following manufacturer's instructions, using a Leukotriene B4 EIA kit from Cayman (Cat # 520111)
The negative controls were media samples from differentiated but unstimulated cells.
The compounds were screened at 5 concentrations in quadruplicate starting at 10 μM

| SMILES | EC50 [2] [nM] | other results |
| --- | --- | --- |
| COP(=O)(CCCC1(C)CCc2cc(O)c3c(c2O1)C1CCC3C1)OC (stereo not drawn) [[3-(6-Hydroxy-2-methyl-3,4,7,8,9,10-hexahydro-7,10-methano-2H-benzo[h]chromen-2-yl)-propyl]-phosphonic Acid Dimethyl Ester] | – | EC50 [1]: ≤ 10000 nM |
| CC(C)=CCc1c(O)c2c(c3c1C=CC(C)(C)O3)C1CCC2C1 (stereo not drawn) [2,2-Dimethyl-5-(3-methyl-but-2-enyl)-7,8,9,10-tetrahydro-7,10-methano-2H-benzo[h]chromen-6-ol] | ≤ 1000 | – |
| CC1(CCC(=O)OCc2ccccc2)CCc2cc(O)c3c(c2O1)C1CCC3CC1 (stereo not drawn) [3-(6-Hydroxy-2-methyl-3,4,7,8,9,10-hexahydro-7,10-ethano-2H-benzo[h]chromen-2-yl)-propionic acid benzyl ester] | – | IC50 [3]: ≤ 5000 nM |
| CC1(C)CCc2c(CC=C3CCCCC3)c(O)c3c(c2O1)C1CCC3CC1 [5-(2-Cyclohexylidene-ethyl)-2,2-dimethyl-3,4,7,8,9,10-hexahydro-7,10-ethano-2H-benzo[h]chromen-6-ol] | ≤ 1000 | – |
| Cc1c(O)c2c(c3c1CCC(C)(CCCCl)O3)C1CCC2CC1 (stereo not drawn) [2-(3-Chloro-propyl)-2,5-dimethyl-3,4,7,8,9,10-hexahydro-7,10-ethano-2H-benzo[h]chromen-6-ol] | ≤ 1000 | EC50 [1]: ≤ 10000 nM; IC50 [3]: ≤ 5000 nM |
| COC12CCC(CC1)c1c(O)cc3c(c12)OC(C)(C)CC3 [10-Methoxy-2,2-dimethyl-3,4,7,8,9,10-hexahydro-7,10-ethano-2H-benzo[h]chromen-6-ol] | – | IC50 [3]: ≤ 5000 nM |
| CC1=NN(c2ccc(C(=O)O)cc2)C(=O)C1=Cc1c(O)c2c(c3c1CCC(C)(C)O3)C1CCC2C1 (stereo not drawn) [4-[4-(6-Hydroxy-2,2-dimethyl-3,4,7,8,9,10-hexahydro-7,10-methano-2H-benzo[h]chromen-5-ylmethylene)-3-methyl-5-oxo-4,5-dihydro-pyrazol-1-yl]-benzoic acid] | ≤ 1000 | – |
| COC(=O)CCC1(C)CCc2cc(O)c3c(c2O1)C1CCCC3CC1 (stereo not drawn) [3-(6-Hydroxy-2-methyl-3,4,7,8,9,10-hexahydro-7,10-propano-2H-benzo[h]chromen-2-yl)-propionic Acid Methyl Ester] | ≤ 1000 | IC50 [3]: ≤ 5000 nM |
| CCCC1=NN(C)C(=O)/C1=C\c1c(O)c2c(c3c1CCC(C)(C)O3)C1CCC2C1 (stereo not drawn) [4-(6-Hydroxy-2,2-dimethyl-3,4,7,8,9,10-hexahydro-7,10-methano-2H-benzo[h]chromen-5-ylmethylene)-2-methyl-5-propyl-2,4-dihydro-pyrazol-3-one] | ≤ 1000 | EC50 [1]: ≤ 10000 nM |
| CC(=O)Oc1c(CC=C(C)C)c2c(c3c1C1CCC3C1)OC(C)(C)C=C2 (stereo not drawn) [Acetic acid 2,2-dimethyl-5-(3-methyl-but-2-enyl)-7,8,9,10-tetrahydro-7,10-methano-2H-benzo[h]chromen-6-yl ester] | ≤ 1000 | – |
| CN(C)CC(=O)Oc1cc2c(c3c1C1CCC3CC1)OC(C)(C)CC2 [Dimethylamino-acetic acid 2,2-dimethyl-3,4,7,8,9,10-hexahydro-7,10-ethano-2H-benzo[h]chromen-6-yl ester] | – | EC50 [4]: ≤ 5000 nM |
| CC(C)=CCc1c(O)c2c(c3c1CCC(C)(C)O3)C1CCC2CC1 [2,2-Dimethyl-5-(3-methyl-but-2-enyl)-3,4,7,8,9,10-hexahydro-7,10-ethano-2H-benzo[h]chromen-6-ol] | ≤ 1000 | – |
| CC1(CCCSc2nc3ccccc3s2)CCc2cc(O)c3c(c2O1)C1CCC3CC1 (stereo not drawn) [2-[3-(Benzothiazol-2-ylsulfanyl)-propyl]-2-methyl-3,4,7,8,9,10-hexahydro-7,10-ethano-2H-benzo[h]chromen-6-ol] | ≤ 1000 | – |
| CC1(C)CCc2c(CO)c(O)c3c(c2O1)C1CCC3C1 (stereo not drawn) [5-Hydroxymethyl-2,2-dimethyl-3,4,7,8,9,10-hexahydro-7,10-methano-2H-benzo[h]chromen-6-ol] | ≤ 1000 | – |
| CC1(C)CCc2c(C=C3C(=O)Oc4ccc(O)cc43)c(O)c3c(c2O1)C1CCC3C1 (stereo not drawn) [5-Hydroxy-3-(6-hydroxy-2,2-dimethyl-3,4,7,8,9,10-hexahydro-7,10-methano-2H-benzo[h]chromen-5-ylmethylene)-3H-benzofuran-2-one] | ≤ 1000 | – |
| CC(=O)Oc1c(CCC(C)C)c2c(c3c1C1CCC3C1)OC(C)(C)CC2 (stereo not drawn) [Acetic acid 2,2-dimethyl-5-(3-methyl-butyl)-3,4,7,8,9,10-hexahydro-7,10-methano-2H-benzo[h]chromen-6-yl ester] | ≤ 1000 | – |
| COC(=O)CCC1(C)CCc2cc(O)c3c(c2O1)C1CCC3CC1 (stereo not drawn) [3-(6-Hydroxy-2-methyl-3,4,7,8,9,10-hexahydro-7,10-ethano-2H-benzo[h]chromen-2-yl)-propionic acid methyl ester] | – | IC50 [3]: ≤ 5000 nM |
